# Laboratory results taken from the supplement of paper PMC10307832.
# Key:
# Assay in all cases: relative viability (nuclei count vs DMSO), 5 days (fraction); higher = more cells survive
# [1] = compound: CN(C)CC1=CC(=CC=C1)N=C(C2=CC=CC=C2)C3=C(NC4=C3C=CC(=C4)C(=O)N(C)C)O + CC1(C)CCC(c2ccc(Cl)cc2)=C(CN2CCN(c3ccc(C(=O)NS(=O)(=O)c4ccc(N[C@H](CCN5CCOCC5)CSc5ccccc5)c(S(=O)(=O)C(F)(F)F)c4)cc3)CC2)C1 [Navitoclax] (partner 0.5 µM)
# How it was run: (§1)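 Each reported value is a median over duplicate plates. It expresses relative viability: treated-well nuclei count divided by vehicle-well nuclei count. Lung cancer cell lines in 1536-well plates were dosed by pin tool a day after seeding, alone with one drug or with a fixed anchor-drug dose plus five library-drug doses (not always all listed) in √10 steps, and nuclei were counted after 5 days.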
# [2] = compound: CN(C)CC1=CC(=CC=C1)N=C(C2=CC=CC=C2)C3=C(NC4=C3C=CC(=C4)C(=O)N(C)C)O + C[C@]1(O)C[C@@H](c2nc(-c3ccc4ccc(-c5ccccc5)nc4c3)c3c(N)nccn32)C1 [Linsitinib] (partner 1 µM)
# How it was run: as §1
# [3] = compound: CN(C)CC1=CC(=CC=C1)N=C(C2=CC=CC=C2)C3=C(NC4=C3C=CC(=C4)C(=O)N(C)C)O + Nc1nc2[nH]cc(CCc3ccc(C(=O)N[C@@H](CCC(=O)O)C(=O)O)cc3)c2c(=O)[nH]1 [Pemetrexed] (partner 0.2 µM)
# How it was run: as §1
# [4] = compound: CN(C)CC1=CC(=CC=C1)N=C(C2=CC=CC=C2)C3=C(NC4=C3C=CC(=C4)C(=O)N(C)C)O + O=C(CCCCCCC(=O)Nc1ccccc1)NO [Vorinostat] (partner 1 µM)
# How it was run: as §1
Cell Line,relative viability ([1]; first compound 0.08 µM),relative viability ([1]; first compound 0.253 µM),relative viability ([1]; first compound 0.8 µM),relative viability ([1]; first compound 2.53 µM),relative viability ([1]; first compound 8 µM),relative viability ([2]; first compound 0.08 µM),relative viability ([2]; first compound 0.253 µM),relative viability ([2]; first compound 0.8 µM),relative viability ([2]; first compound 2.53 µM),relative viability ([2]; first compound 8 µM),relative viability ([3]; first compound 0.08 µM),relative viability ([3]; first compound 0.253 µM),relative viability ([3]; first compound 0.8 µM),relative viability ([3]; first compound 2.53 µM),relative viability ([3]; first compound 8 µM),relative viability ([4]; first compound 0.08 µM),relative viability ([4]; first compound 0.253 µM),relative viability ([4]; first compound 0.8 µM),relative viability ([4]; first compound 2.53 µM),relative viability ([4]; first compound 8 µM)
LK-2,1.06,0.784,0.897,0.789,0.761,0.546,0.517,0.514,0.723,0.222,0.286,0.253,0.236,0.269,0.211,0.352,0.28,0.272,0.331,0.262
LOU-NH91,0.756,0.687,0.548,0.653,0.638,0.975,0.946,0.68,0.925,0.952,0.383,0.367,0.465,0.349,0.465,0.892,0.97,0.754,0.87,0.872
LU99A,0.827,0.581,0.879,0.781,0.882,0.546,0.545,0.496,0.534,0.485,0.171,0.173,0.228,0.156,0.185,0.517,0.515,0.495,0.416,0.469
LXF-289,0.959,0.911,0.946,0.945,0.809,0.935,0.931,0.955,0.857,0.915,0.937,0.836,0.904,0.885,0.827,0.778,0.745,0.756,0.72,0.727
NCI-H23,0.9,0.911,0.884,0.99,0.732,0.628,0.73,0.598,0.554,0.531,–,0.718,0.962,0.776,0.596,–,0.655,0.688,0.649,0.549
NCI-H322M,1.18,1.13,1.07,1.06,1.15,1.04,0.816,0.677,0.887,0.707,0.556,0.6,0.612,0.565,0.527,0.8,0.957,0.874,0.743,0.67
NCI-H441,0.632,0.391,0.619,0.647,0.565,0.593,0.539,0.507,0.496,0.418,0.264,0.274,0.237,0.258,0.291,0.852,0.86,1.01,0.613,0.805
NCI-H460,1.05,1.13,1.07,1.05,1.05,0.841,0.758,0.893,0.471,0.54,0.0639,0.0794,0.0612,0.0522,0.0565,0.722,0.702,0.716,0.704,0.728
NCI-H520,1.04,1.23,1.07,1.05,0.953,0.896,0.878,0.919,0.834,0.97,0.688,0.654,0.737,0.563,0.435,0.715,0.644,0.831,0.621,0.536
NCI-H596,0.967,0.93,0.911,0.977,0.83,1.11,1.07,1.06,1,1.11,0.493,0.554,0.484,0.502,0.521,0.575,0.72,0.585,0.554,0.862
NCI-H647,1.15,0.962,1.34,0.916,0.976,1.29,1.11,0.858,1.12,0.795,0.179,0.181,0.147,0.172,0.181,0.477,0.561,0.423,0.421,0.649
NCI-H838,1.22,1.16,1.2,1.07,0.985,1.05,0.96,0.981,0.88,0.826,0.247,0.243,0.23,0.213,0.253,0.722,0.726,0.716,0.703,0.597
NCI-H1355,1.01,0.87,0.836,0.93,0.866,0.849,0.885,0.656,0.774,0.762,1.03,0.991,0.926,0.949,1.02,0.633,0.688,0.558,0.608,0.576
NCI-H1395,1.23,1.13,1.22,0.965,1.12,1.08,0.838,1.08,0.788,0.995,0.915,0.931,0.992,0.763,0.834,0.705,0.845,0.886,0.589,0.701
NCI-H1437,1.2,1.08,1.09,1.06,1.12,0.948,1.07,1.05,1.01,1.03,0.297,0.294,0.287,0.283,0.285,0.918,0.886,0.975,0.943,1.1
NCI-H1651,1.11,1.11,1.13,1.11,0.934,0.88,1.2,0.923,0.789,0.801,0.565,0.564,0.639,0.558,0.668,0.558,0.547,0.573,0.599,0.593

Cell Line,relative viability ([1]; first compound 0.08 µM),relative viability ([1]; first compound 0.253 µM),relative viability ([1]; first compound 0.8 µM),relative viability ([1]; first compound 2.53 µM),relative viability ([1]; first compound 8 µM),relative viability ([2]; first compound 0.08 µM),relative viability ([2]; first compound 0.253 µM),relative viability ([2]; first compound 0.8 µM),relative viability ([2]; first compound 2.53 µM),relative viability ([2]; first compound 8 µM),relative viability ([3]; first compound 0.08 µM),relative viability ([3]; first compound 0.253 µM),relative viability ([3]; first compound 0.8 µM),relative viability ([3]; first compound 2.53 µM),relative viability ([3]; first compound 8 µM),relative viability ([4]; first compound 0.08 µM),relative viability ([4]; first compound 0.253 µM),relative viability ([4]; first compound 0.8 µM),relative viability ([4]; first compound 2.53 µM),relative viability ([4]; first compound 8 µM)
NCI-H1666,0.983,1.14,1.02,1.07,1.1,0.695,0.934,0.741,0.941,0.731,0.774,0.909,0.825,0.886,1.01,1.06,1.09,0.956,1.01,1.34
NCI-H1734,0.821,0.836,0.889,0.844,0.644,0.763,0.911,0.957,0.9,0.762,0.405,0.441,0.436,0.398,0.436,0.909,0.829,0.828,0.86,0.66
NCI-H1755,1.02,1.01,0.998,0.972,0.961,0.986,1.01,0.926,0.998,0.973,0.351,0.404,0.371,0.364,0.423,0.739,0.768,0.717,0.715,0.766
NCI-H1793,0.387,0.439,0.269,0.492,0.406,0.96,0.84,0.617,1.03,0.806,0.901,0.872,0.553,0.791,0.823,0.826,0.812,0.563,0.821,0.859
NCI-H1915,0.819,0.75,0.782,0.791,0.805,1.09,1.12,1.15,1.02,1.11,0.51,0.446,0.629,0.513,0.417,0.528,0.512,0.501,0.516,0.415
NCI-H1944,1.21,0.937,0.951,0.947,0.908,1.18,1.18,1.01,1.17,1.08,0.607,0.571,0.615,0.512,0.537,0.737,0.589,0.571,0.455,0.469
NCI-H1975,1.07,1.06,0.989,1.08,1.06,0.935,0.999,0.824,0.871,0.855,0.292,0.327,0.287,0.301,0.31,0.709,0.669,0.705,0.661,0.604
NCI-H1993,0.935,1.02,0.885,0.933,1.09,0.716,0.787,0.7,0.737,0.799,0.684,0.576,–,0.495,0.634,0.904,0.79,–,1.14,0.994
NCI-H2009,1.14,1.12,1.17,1.16,1.17,1.19,1.21,1.21,1.12,1.19,0.982,0.993,1.08,1.03,0.957,0.76,0.724,0.756,0.727,0.708
NCI-H2023,1.02,0.97,0.952,0.872,0.984,0.625,0.607,0.533,0.563,0.625,0.228,0.251,0.238,0.19,0.246,0.594,0.685,0.765,0.368,0.589
NCI-H2085,1.24,1.16,1.06,1.16,1.18,0.897,0.844,0.875,0.92,0.916,0.87,0.948,0.832,0.908,0.901,0.785,0.777,0.785,0.819,0.773
NCI-H2087,1.02,0.942,1.17,1.03,0.9,0.981,1.01,1.06,0.828,0.966,0.629,0.644,0.617,0.721,0.68,0.53,0.668,0.69,0.796,0.846
NCI-H2126,0.899,0.898,0.821,0.913,0.892,0.701,0.668,0.679,0.759,0.686,0.677,0.706,0.708,0.639,0.626,0.822,0.767,0.475,0.8,0.554
NCI-H2228,0.868,0.909,0.731,0.803,0.663,0.66,0.541,1.12,0.63,0.582,0.312,0.36,0.339,0.33,0.353,0.653,0.583,0.977,0.65,0.542
NCI-H2347,0.898,0.878,0.67,0.775,0.871,1.04,0.995,0.994,1.03,1.05,0.405,0.461,0.418,0.42,0.43,0.604,0.736,0.617,0.539,0.565
NCI-H2405,1.17,0.759,1.1,0.786,0.742,1.01,0.845,1.03,0.867,0.76,1.2,1.07,0.936,1.08,0.828,1.1,1.01,1.06,0.987,1.01
